The test addresses T1, HPPK (6-Hydroxymethyl-7,8-dihydropterin pyrophosphokinase) (Escherichia coli, UniProt P26281).
T1 construct: gene folK; recombinant HPPK from pET28A, Ni-NTA purified
T1 sequence (P26281 2-159): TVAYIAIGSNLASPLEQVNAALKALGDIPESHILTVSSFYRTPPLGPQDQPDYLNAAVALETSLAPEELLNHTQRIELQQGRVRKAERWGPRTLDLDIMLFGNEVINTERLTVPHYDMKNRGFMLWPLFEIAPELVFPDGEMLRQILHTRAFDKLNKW
The experiment in a line: KinaseGlo luminescence ATP-depletion assay; substrate starts the reaction and relieves CD15-3 inhibition. The format is biochemical. (In general: Kinase-Glo measures the ATP left after a reaction by luminescence.)

Turning to `Nc1nc2c(c(=O)[nH]1)N=C(CO)CN2` [6-Hydroxymethyl-7,8-dihydropterin], the “KinaseGlo luminescence ATP-depletion assay; substrate starts the reaction and re” value is on record as “HPPK reaction was initiated with the introduction of the substrate, 6-Hydroxymethyl-7,8-dihydropterin in the assay buffer”.
